The test addresses T1, HPK1 (Homo sapiens, UniProt Q92918).
T1 construct: A HiBiT tag was introduced by CRISPR on the N terminus of HPK1 in Jurkat cells; host or cells: Jurkat cells (ATCC TIB-152), monoclonal line with CRISPR knock-in of HiBiT at the endogenous HPK1 locus
The experiment in a line: HPK1 Cellular HiBit Degradation Assay. Format: cell-based. The following applies: HiBiT HPK1 Jurkat cells, 24 hrs; for DC50: concentration at which 50% of HPK1 was remaining, read-out: DC50 Category; for Dmax: Jurkat, maximum degradation vs DMSO vehicle control, read-out: Dmax Category. A digest of the protocol: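 HPK1 levels are read by HiBiT luminescence after 24 h exposure of HiBiT-knock-in Jurkat cells to compound at 10 uM–0.1 nM final (11 points). Relative to DMSO (100%), DC50 is the concentration leaving 50% HPK1 from a variable-slope fit, and Dmax is 100 minus minimum remaining. Viability checked in-plate.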
In general terms: HiBiT is a short tag that completes a luciferase, so light tracks the accessible tagged protein.

T1 sequence (Q92918 whole entry): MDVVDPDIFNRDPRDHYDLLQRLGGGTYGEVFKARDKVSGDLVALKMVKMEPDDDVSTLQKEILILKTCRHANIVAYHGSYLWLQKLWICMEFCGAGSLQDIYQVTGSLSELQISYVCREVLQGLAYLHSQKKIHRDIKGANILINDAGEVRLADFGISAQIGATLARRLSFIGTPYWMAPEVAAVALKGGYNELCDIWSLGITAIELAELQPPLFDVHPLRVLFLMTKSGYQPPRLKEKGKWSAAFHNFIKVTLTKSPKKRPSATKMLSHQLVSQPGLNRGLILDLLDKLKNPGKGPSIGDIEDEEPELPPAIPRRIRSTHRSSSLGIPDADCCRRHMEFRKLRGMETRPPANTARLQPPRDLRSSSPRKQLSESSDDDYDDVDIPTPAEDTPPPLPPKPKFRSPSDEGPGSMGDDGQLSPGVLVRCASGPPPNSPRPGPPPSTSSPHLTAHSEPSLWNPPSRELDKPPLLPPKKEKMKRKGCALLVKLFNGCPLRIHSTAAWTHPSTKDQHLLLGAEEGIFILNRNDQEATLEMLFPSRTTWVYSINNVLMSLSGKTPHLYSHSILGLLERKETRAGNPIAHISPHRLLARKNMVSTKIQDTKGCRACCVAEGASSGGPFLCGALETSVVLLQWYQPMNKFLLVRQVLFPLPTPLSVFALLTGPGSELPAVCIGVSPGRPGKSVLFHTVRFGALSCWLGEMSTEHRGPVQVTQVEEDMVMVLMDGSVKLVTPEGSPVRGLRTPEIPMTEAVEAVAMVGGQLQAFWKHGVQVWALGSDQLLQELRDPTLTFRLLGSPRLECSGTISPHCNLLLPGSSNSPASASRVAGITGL

On to `CC(C)n1cnc2cc(-c3ccc4c(c3)N([C@H]3C[C@@H](N5CCCCC5)C3)C(=O)C43CCN(C(=O)[C@@H]4C[C@H]5CC[C@@H](C4)N5C(=O)C4CCN(c5ccc(C6CCC(=O)NC6=O)cc5)CC4)CC3)nc(NC3CC3)c21` (mixture of isomers) [Example 262, (3RS)-3-(4-{4-[(1R,3R,5S)-3-({6-[4-(cyclopropylamino)-3-(propan-2-yl)-3H-imidazo[4,5-c]pyridin-6-yl]-2-oxo-1-[(1S,3S)-3-(piperidin-1-yl)cyclobutyl]-1,2-dihydrospiro[indole-3,4′-piperidin]-1′-yl}carbonyl)-8-azabicyclo[3.2.1]Octane-8-carbonyl]piperidin-1-yl}phenyl)piperidine-2,6-dione], for which the DC50 is less than 100 nM and the greatest degradation seen (Dmax) was 70 to 85%.

In the case of `CC(C)n1cnc2cc(-c3ccc4c(c3)N([C@H]3C[C@@H](N5CCCCC5)C3)C(=O)C43CCN(C(=O)C4CCN(C(=O)[C@H]5CC[C@H](Nc6cccc7c6C(=O)N(C6CCC(=O)NC6=O)C7=O)CC5)CC4)CC3)nc(Nc3ccccc3F)c21` (mixture of isomers) [Example 57, 2-[(3RS)-2,6-dioxopiperidin-3-yl]-4-{[(1R,4R)-4-{4-[(6-{4-[(2-fluorophenyl)amino]-3-(propan-2-yl)-3H-imidazo[4,5-c]pyridin-6-yl}-2-oxo-1-[(1S,3S)-3-(piperidin-1-yl)cyclobutyl]-1,2-dihydrospiro[indole-3,4′-piperidin]-1′-yl)carbonyl]piperidine-1-carbonyl}cyclohexyl]amino}-2,3-dihydro-1H-isoindole-1,3-dione], the half-maximal degradation concentration (DC50) lay within 100 to 500 nM and the Dmax fell in the range of 70 to 85%.

As for `CC(C)n1cnc2cc(-c3ccc4c(c3)N([C@H]3C[C@@H](N5CCCCC5)C3)C(=O)C43CCN(C(=O)C4(C)CCN(C(=O)C5CCN(c6ccc(C7CCC(=O)NC7=O)nc6)CC5)CC4)CC3)nc(Nc3ccccc3F)c21` (mixture of isomers) [Example 119, (3RS)-3-[5-(4-{4-[(6-{4-[(2-fluorophenyl)amino]-3-(propan-2-yl)-3H-imidazo[4,5-c]pyridin-6-yl}-2-oxo-1-[(1S,3S)-3-(piperidin-1-yl)cyclobutyl]-1,2-dihydrospiro[indole-3,4′-piperidin]-1′-yl)carbonyl]-4-methylpiperidine-1-carbonyl}piperidin-1-yl)pyridin-2-yl]piperidine-2,6-dione], the DC50 was less than 100 nM and the Dmax lay in the range of 70 to 85%.

As for `CC(C)n1cnc2cc(-c3ccc4c(c3)N([C@H]3C[C@@H](N5CCCCC5)C3)C(=O)C43CCN(C(=O)[C@H]4CC[C@H](C(=O)N5CCC(Nc6ccc(C7CCC(=O)NC7=O)cn6)CC5)CC4)CC3)nc(Nc3ccccc3F)c21` (stereo partly drawn) [Example 26, 3-(6-((1-((1R,4R)-4-(6-(4-((2-fluorophenyl)amino)-3-isopropyl-3H-imidazo[4,5-c]pyridin-6-yl)-2-oxo-1-((1s,3S)-3-(piperidin-1-yl)cyclobutyl)spiro[indoline-3,4′-piperidine]-1′-carbonyl)cyclohexane-1-carbonyl)piperidin-4-yl)amino)pyridin-3-yl)piperidine-2,6-dione], the DC50 is less than 100 nM and the Dmax is 70 to 85%.

For the compound `CC(C)n1cnc2cc(-c3ccc4c(c3)N([C@H]3C[C@@H](N5CCCCC5)C3)C(=O)C43CCN(C(=O)C[C@@H]4CCN(C(=O)[C@H]5CC[C@@H](Nc6cccc7c6C(=O)N(C6CCC(=O)NC6=O)C7=O)CC5)C4)CC3)nc(NC3CC3)c21` (mixture of isomers) [Example 35, 2-[(3RS)-2,6-dioxopiperidin-3-yl]-4-{[(1R,4R)-4-[(3S)-3-(2-{6-[4-(cyclopropylamino)-3-(propan-2-yl)-3H-imidazo[4,5-c]pyridin-6-yl]-2-oxo-1-[(1S,3S)-3-(piperidin-1-yl)cyclobutyl]-1,2-dihydrospiro[indole-3,4′-piperidin]-1′-yl}-2-oxoethyl)pyrrolidine-1-carbonyl]cyclohexyl]amino}-2,3-dihydro-1H-isoindole-1,3-dione], the DC50 was 500 to 1000 nM and the Dmax was 50 to 70%.

Broadly, the DC50 is the concentration giving 50% degradation. One may read the Dmax as the largest share of the target that was removed.

Source of the values: patent US12091426B2, “Bifunctional degraders of hematopoietic progenitor kinase and therapeutic uses thereof” (Nurix Therapeutics, Inc., priority 2021, dated 2024).
